Results reported in publication PMC6373163, “Potential in vitro anti-allergic, anti-inflammatory and cytotoxic activities of ethanolic extract of Baliospermum montanum root, its major components and a validated HPLC method” (BMC Complementary and Alternative Medicine, 2019).
In brackets after ≈: the same amount, converted by molar mass.

Legend:
[1] = system: β-hexosaminidase released from RBL-2H3 cells; test: Inhibition of β-hexosaminidase release from IgE-sensitized, DNP-BSA-stimulated RBL-2H3 cells (anti-allergic activity); type: cell-based, rat; settings: for inhibition at 1 µg/mL / inhibition at 10 µg/mL / inhibition at 50 µg/mL / IC50 / inhibition at 0.1 µg/mL: Rattus norvegicus, mean ± SD, triplicate; for inhibition at 1 µg/mL: 1 μg/ml; for inhibition at 10 µg/mL: 10 μg/ml; for inhibition at 50 µg/mL: 50 μg/ml; for inhibition at 0.1 µg/mL: 0.1 μg/ml
Experimental: Inhibitory activity on β-hexosaminidase released from rat basophilic leukemia cells (RBL-2H3) was evaluated following the report of Juckmetha and co-workers. RBL-2H3 cells were cultured in MEM supplemented with 15% FBS, penicillin/streptomycin (each 100 μg/mL). Cells were seeded in 24-well plate with the concentration of 5 × 10^5 cells/well and incubated in 5% CO2 at 37 °C for 1.5 h. RBL-2H3 were sensitized with 0.45 μg/mL of Anti-DNP IgE and incubated at 37 °C in 5% CO2 for 24 h. Cells were then washed with 400 μL of Siraganian buffer (Buffer A) [119 mM NaCl, 5 mM KCl, 5.6 mM glucose, 0.4 mM MgCl2, 1 mM CaCl2, 25 mM piperazine-N,N′-bis (2-ethanesulfonic acid) (PIPES), 0.1% BSA, and 40 mM NaOH, pH 7.2]. Subsequently, 160 μL of buffer A was added into the wells and incubated at 37 °C for 10 min. The stock solution of the sample was diluted in DMSO and the working samples were diluted with buffer A. The concentrations of the working samples were 0.1 μg/mL, 1 μg/mL, 10 μg/mL and 50 μg/mL. The serially diluted samples (20 μL) were added to each well and incubated for 10 min. The reaction of antigen-antibody was obtained by adding 20 μL of antigen (DNP-BSA) to produce a final concentration of 10 μg/mL and incubated at 37 °C for 20 min. The amount of β-hexosaminidase released from the degranulation was determined by adding 50 μL of the substrate, PNAG (1 mM in 0.1 M citrate buffer, pH 4.5). The enzyme reaction was stopped by adding 200 μL of 0.1 M carbonate buffer pH 10.0. The product of enzyme reaction, p-nitrophenol, was analyzed by measuring absorbance at wavelength 405 nm. Chlorpheniramine was used as positive control. The percentage of inhibition was calculated by the following equation. Inhibition%=1−T−B−N/C−B−N×100
Where • C = Optical density of control: [+] DNP-BSA, [−] Test sample; • T = Optical density of test sample: [+] DNP-BSA, [+] Test sample; • B = Optical density of blank: […], [+] Test sample; • N = Optical density of normal: [−] DNP-BSA, [−] Test sample.

[2] = system: β-hexosaminidase released from RBL-2H3 cells; test: as above; type: cell-based; settings: Rattus norvegicus, 100 μg/ml, mean ± SD, triplicate
HepG2 = test: Cytotoxic activity by sulforhodamine B (SRB) assay, HepG2; type: cell-based; settings: for Selective index: HaCaT versus HepG2; for IC50: Homo sapiens, HepG2, SRB, 72 h exposure, 72 h recovery
Experimental: (§1) The crude extracts and isolated compounds were evaluated for cytotoxic activity by using sulforhodamine B (SRB) assay against two cancerous liver cells (HepG2 and KKU-M156) and a normal cells (HaCaT). The SRB protocol has been described previously. HepG2 was cultured in MEM; KKU-M156 was cultured in HAM F-12 media and HaCaT was cultured in DMEM. All cultured media were supplemented with 10% FBS, penicillin/streptomycin (each 100 units/mL). All cells were incubated in 5% CO2 at 37 °C with 95% humidity. Based on the growth curve, each cell was seeded into 96-well plate (100 μL per well) with optimal density (HepG2: 3 × 10^3 cells per well, KKU-M156: 2 × 10^3 cells per well and HaCaT: 8 × 10^3 cells per well). Seeded cells were incubated at 37 °C in a 5% CO2 with 95% humidity for 24 h. Cells were then treated with 100 μL of different concentrations of sample solution (0.1 μg/mL, 1 μg/mL, 10 μg/mL and 50 μg/mL). DMSO at the same concentration as the sample (2% v/v) was used as the control solvent. Cell cultures were incubated for the exposure time of 72 h. After the exposure time, the medium was removed and the plate was washed with 200 μL phosphate buffer saline (PBS) and 200 μL fresh medium was added into each well. The plates were then incubated for 72 h for the recovery period. The cells were then fixed by adding 100 μL of 40% trichloroacetic acid and the plates left at 4 °C for 45 min. After the plates were washed, 50 μL of SRB solution (0.4% w/v in acetic acid) was added into each well and the cells were allowed to be strained for 30 min. The stained cells were dissolved by using 100 μL of 10 mM Tris base pH 10.5. The %inhibition was calculated using the following equation. Inhibition%=ODcontrol‐ODsample/ODcontrol×100

[3] = Cytotoxic activity by sulforhodamine B (SRB) assay, normal cells HaCaT; type: cell-based; settings: human, 72 h exposure, 72 h recovery
Experimental: as §1

[4] = Viability of LPS-treated RAW 264.7 cells (MTT); type: cell-based, murine; settings: mouse
Experimental: The viability of the LPS treated RAW 264.7 cells were colorimetrically determined by using 3-(4, 5-dimethyl-2-thiazolyl)-2, 5-diphenyl-2H-tetrazolium bromide (MTT) method. MTT solution (10 μL) was added into each well and the plate was incubated for 2 h. The remained formazan crystal in each well, after removing the medium, was dissolved by 0.04 M HCl in isopropanol (100 μL). The optical density was measured by using microplate reader at wavelength 570 nm.

KKU-M156 = test: Cytotoxic activity by sulforhodamine B (SRB) assay, KKU-M156; type: cell-based; settings: for Selective index: HaCaT versus KKU-M156; for IC50: KKU-M156, SRB, 72 h exposure, 72 h recovery
Experimental: as §1

[5] = system: NO production of LPS-induced RAW 264.7 cells; test: Inhibition of NO production in LPS-induced RAW 264.7 cells (Griess reagent); type: cell-based, murine; settings: Mus musculus; for inhibition at 0.1 µg/mL: RAW264.7, 0.1 μg/mL; for inhibition at 0.1 µg/mL / inhibition at 1 µg/mL / inhibition at 10 µg/mL / inhibition at 50 µg/mL: mean ± SD, read-out: %Inhibition of LPS-induced nitric oxide release; for inhibition at 1 µg/mL: RAW264.7, 1 μg/mL; for inhibition at 10 µg/mL: RAW264.7, 10 μg/mL; for inhibition at 50 µg/mL: RAW264.7, 50 μg/mL; for IC50: RAW264.7, mean ± SD, triplicate, read-out: IC50, LPS-induced nitric oxide release
Experimental: The inhibitory activity of crude extracts and isolated compounds on NO production of LPS-induced RAW 264.7 cells was investigated according to a previously reported method. RAW 264.7 cells were cultured in RPMI medium supplemented with 10% FBS, penicillin/streptomycin (each 100 units/mL) and incubated at 37 °C in 5% CO2 with 95% humidity. The cells were seeded into 96-well plate (1 × 10^5 cells per well) and incubated for 24 h. Subsequently, the cells were induced by LPS at the final concentration of 2 ng/mL and the serially diluted samples (0.1 μg/mL, 1 μg/mL, 10 μg/mL and 50 μg/mL) were added. The plate was incubated for 24 h before being tested for NO accumulation and cell viability. Prednisolone was used as positive control. The accumulated NO released from the LPS-induced RAW 264.7 cells was determined by using Griess’s reagent (1% sulfanilamide and 0.1% N-(1- naphthyl) ethylenediamine dihydrochloride in 2.5% phosphoric acid). The supernatant in each well (100 μL) was transferred to another 96-well plate and 100 μL of Griess’s reagent was added. The optical density of reaction was measured at 570 nm. The inhibitory activity (%) of NO production was calculated by the following equation and the IC50 values were calculated. Inhibition%=ODcontrol‐ODsample/ODcontrol×100

[6] = system: NO production of LPS-induced RAW 264.7 cells; test: as above; type: cell-based, murine; settings: Mus musculus, RAW264.7, 0.01 μg/mL, mean ± SD, read-out: %Inhibition of LPS-induced nitric oxide release

CN(C)CCC(c1ccc(Cl)cc1)c1ccccn1 (centres unmarked) [Chlorpheniramine, reference compound]
inhibition at 1 µg/mL [1]: 14.9 ± 1.57%
inhibition at 10 µg/mL [1]: 36.2 ± 2.84%
inhibition at 50 µg/mL [1]: 71.4 ± 11%
IC50 [1]: 17.7 ± 1.61 µg/mL
inhibition at 100 µg/mL [2]: 81.3 ± 9.51%

CCC(=O)c1ccc(OC)c(OC)c1 [Compound 1, 1-(3′,4′-dimethoxyphenyl) propan-1-one]
Selective index (HepG2): > 1.15
IC50 (HepG2): 87.1 ± 1.36 µg/mL (≈ 448 µM)
IC50 at 72 h [3]: > 100 µg/mL
viability at 0.1 μg/mL [4]: 84.7%
viability at 1 μg/mL [4]: 89.7%
viability at 10 μg/mL [4]: 84.7%
viability at 50 μg/mL [4]: 80.5%
inhibition at 0.1 µg/mL [1]: -7.88 ± 3.01%
inhibition at 1 µg/mL [1]: 4.84 ± 3.46%
inhibition at 10 µg/mL [1]: 29.4 ± 2.01%
inhibition at 50 µg/mL [1]: 77.7 ± 3.6%
IC50 [1]: 21.2 ± 2.01 µg/mL
Selective index (KKU-M156): > 1.71
IC50 (KKU-M156): 58.3 ± 5.95 µg/mL (≈ 300 µM)
inhibition at 0.1 µg/mL [5]: 2.66 ± 0.23%
inhibition at 1 µg/mL [5]: 3.91 ± 3.03%
inhibition at 10 µg/mL [5]: 14.4 ± 1.71%
inhibition at 50 µg/mL [5]: 69.2 ± 2.49%
IC50 [5]: 40.4 ± 1.32 µg/mL (≈ 208 µM)

CCC(=O)c1cc(OC)c(OC)c(OC)c1 [Compound 2, 1-(3′,4′,5′-trimethoxyphenyl) propan-1-one]
Selective index (HepG2): > 2.10
IC50 (HepG2): 47.6 ± 1.2 µg/mL (≈ 212 µM)
IC50 at 72 h [3]: > 100 µg/mL
viability at 0.1 μg/mL [4]: 94.5%
viability at 1 μg/mL [4]: 88.8%
viability at 10 μg/mL [4]: 80.8%
viability at 50 μg/mL [4]: 90.4%
inhibition at 0.1 µg/mL [1]: -5.37 ± 2.3%
inhibition at 1 µg/mL [1]: 15.1 ± 1.71%
inhibition at 10 µg/mL [1]: 30.4 ± 6.7%
inhibition at 50 µg/mL [1]: 75.2 ± 6.47%
IC50 [1]: 26.2 ± 6.06 µg/mL
Selective index (KKU-M156): > 1.04
IC50 (KKU-M156): 95.65 ± 0.48 µg/mL (≈ 427 µM)
inhibition at 0.1 µg/mL [5]: 7.09 ± 6.86%
inhibition at 1 µg/mL [5]: 11.1 ± 9.89%
inhibition at 10 µg/mL [5]: 8.69 ± 6.93%
inhibition at 50 µg/mL [5]: 58.8 ± 3.59%
IC50 [5]: 33.6 ± 5.25 µg/mL (≈ 150 µM)

CCC(=O)c1cc(OC)c(OC)cc1O [Compound 3, 1-(2′-hydroxy-4′, 5′-dimethoxyphenyl) propan-1-one]
Selective index (HepG2): > 1.11
IC50 (HepG2): 90.3 ± 5.65 µg/mL (≈ 430 µM)
IC50 at 72 h [3]: > 100 µg/mL
viability at 0.1 μg/mL [4]: 102%
viability at 1 μg/mL [4]: 97%
viability at 10 μg/mL [4]: 97.3%
viability at 50 μg/mL [4]: 91.6%
inhibition at 0.1 µg/mL [1]: -14.2 ± 5.67%
inhibition at 1 µg/mL [1]: 8.52 ± 2.93%
inhibition at 10 µg/mL [1]: 17.4 ± 5.72%
inhibition at 50 µg/mL [1]: 60.8 ± 8.98%
IC50 [1]: 44.4 ± 7.33 µg/mL
anti-allergic activity (in words) ([1]; judged from IC50): moderate activity
Selective index (KKU-M156): > 1.20
IC50 (KKU-M156): 83.4 ± 5.2 µg/mL (≈ 397 µM)
inhibition at 0.1 µg/mL [5]: -0.82 ± 3.26%
inhibition at 1 µg/mL [5]: 2.64 ± 0.31%
inhibition at 10 µg/mL [5]: 14.6 ± 3.43%
inhibition at 50 µg/mL [5]: 34.4 ± 3.07%
IC50 [5]: > 50 µg/mL

C[C@]12C=CC(=O)C=C1CC[C@@H]1[C@@H]2[C@@H](O)C[C@@]2(C)[C@H]1CC[C@]2(O)C(=O)CO [Prednisolone, reference compound]
viability at 0.01 μg/mL ([4]; 0.01 μg/mL): 100%
viability at 0.1 μg/mL [4]: 84.3%
viability at 1 μg/mL [4]: 89.5%
viability at 10 μg/mL [4]: 80.8%
inhibition at 0.01 µg/mL [6]: 19.8 ± 3.43%
inhibition at 0.1 µg/mL [5]: 47.7 ± 6.24%
inhibition at 1 µg/mL [5]: 69.9 ± 3.76%
inhibition at 10 µg/mL [5]: 77.9 ± 8.12%
IC50 [5]: 0.11 ± 0.02 µg/mL (≈ 0.305 µM)

CC[C@]1(O)C[C@H]2CN(CCc3c([nH]c4ccccc34)[C@@](C(=O)OC)(c3cc4c(cc3OC)N(C=O)[C@H]3[C@@](O)(C(=O)OC)[C@H](OC(C)=O)[C@]5(CC)C=CCN6CC[C@]43[C@@H]65)C2)C1 [Vincristine, reference compound]
Selective index (HepG2): < 0.008
IC50 (HepG2): 0.013 ± 0.0006 µg/mL (≈ 0.0158 µM)
IC50 at 72 h [3]: < 0.0001 µg/mL
Selective index (KKU-M156): < 0.033
IC50 (KKU-M156): 0.003 ± 0.0015 µg/mL (≈ 0.00364 µM)
